Laboratory results as given in patent US20110104121A1, “Female Reproductive Tract and Anal Prophylaxes” (priority 2008, published 2011).

Key:
[1] = tested on: uterine epithelial cells (UTEC); experiment: CCL20/MIP3α production by uterine (endometrium) epithelial cells on TLR agonist treatment; format: cell-based, human
Description: (§1) Materials and Methods. Source of Tissues Human uterine and Fallopian tube tissues were obtained from women undergoing hysterectomy. Tissues used in this study were collected from patients with benign conditions such as fibroids distal from the site of pathology. The sections were examined by a pathologist and proclaimed to be free of pathological lesions. A total of nine different patients were used to obtain uterine epithelial cells and a total of seven patients were used to obtain Fallopian tube epithelial cells.
(§2) Epithelial cells were isolated according to known methods (Fahey, et al. (1999) supra; Fahey, et al. (1998) supra) as described herein.
(§3) To establish a cell culture system of polarized human uterine epithelial cells (UTEC) and Fallopian tube epithelial cells (FTEC) with both apical and basolateral compartments, primary human UTEC and FTEC were cultured in Human Extracellular Matrix (Becton Dickenson, Franklin Lakes, N.J., USA)-coated Falcon cell culture inserts in 24-well culture plates (Fisher Scientific, Pittsburgh, Pa., USA). For these experiments, apical and basolateral compartments contained 300 and 850 μL of complete medium, respectively. The medium was changed every 2 days. […]
(§4) Concentrations of CCL20/MIP3α in the apical and basolateral supernatants from human primary UTEC and FTEC were determined with an ELISA Duoset kit (R&D Systems, Minneapolis, Minn., USA) according to the manufacturer's protocol. Amounts of CCL20/MIP3α were quantified based on a standard curve after OD measurements at 450 nm on an ELISA reader (Dynex, Chantilly, Va., USA).
(§5) Real-time RT-PCR was carried with a two-step protocol as described herein. […] As indicated herein, the software calculates the threshold cycle (Ct) for each reaction which was used to quantify the amount of starting template in the reaction.

[2] = tested on: Fallopian tube epithelial cells (FTEC); experiment: CCL20/MIP3α production by Fallopian tube epithelial cells on Poly(I:C) treatment; format: cell-based, human
Description: as §1, §2, §3, §4, §5

[3] = tested on: uterine epithelial cells; experiment: Trappin-2/Elafin production by uterine epithelial cells on Poly(I:C) stimulation; format: cell-based, human; settings: 24 hour conditioned media, ELISA
Description: (§6) Materials & Methods. A total of 11 different patients were used to obtain epithelial cells from the uterus, Fallopian tube, endocervix and ectocervix. Epithelial cells were isolated according to known methods (Fahey, et al. (1999) Am. J. Reprod. Immunol. 42(1):49-57; Fahey et al. (1998) Immunol. Invest. 27(3):167-80). Briefly, tissues were rinsed with 1×PBS and minced into 1-2 mm fragments prior to subjecting them to enzymatic digestion for 2 hours at 37° C. The enzyme mixture contained 3.4 mg/ml pancreatin (Invitrogen Life Technologies, Carlsbad, Calif.), 0.1 mg/ml hyaluronidase (Worthington Biochemical, Lakewood, N.J.), 1.6 mg/ml collagenase (Worthington Biochemical), and 2 mg/ml D-glucose, in 1×HBSS (Invitrogen Life Technologies). […] Epithelial cell sheets retained on the filter were recovered by rinsing and backwashing, centrifuged at 500×g for 10 minutes and analyzed for cell number and viability. […]
(§7) Concentrations of Trappin-2/Elafin in the apical and basolateral supernatants from primary FRT epithelial cells and CVL from HIV(+) and (−) women were determined with an ELISA Duoset kit (R&D Systems, Minneapolis, Minn., USA) according to the manufacturer's protocol. […] Amounts of Trappin-2/Elafin were measured based on a standard curve after OD measurements at 450 nm on an ELISA reader (Dynex, Chantilly, Va., USA). […]

[4] = tested on: Fallopian tube, endocervix, and ectocervix epithelial cells; experiment: Trappin-2/Elafin production by Fallopian tube, endocervix and ectocervix epithelial cells on Poly(I:C) stimulation; format: cell-based, human; settings: 4-6 patients per compartment
Description: as §6, §7

[5] = tested on: HIV-1 R5/M-tropic BaL; experiment: TZM-bl infectivity assay, HIV-1 BaL; format: cell-based
Description: (§8) The TZM indicator cell line is a HeLa cell derivative that expresses high levels of CD4, CCR5 and CXCR4 (Wei, et al. (2002) Antimicrob. Agents Chemother. 46(6):1896-905). The cells contain HIV long terminal repeat (LTR)-driven β-galactosidase and luciferase reporter cassettes that are activated by HIV tat expression.
(§9) TZM cells were seeded at 2×10^4 cells per well in a 96-well microtiter plate and allowed to adhere overnight at 37° C. Varying doses of recombinant human Trappin-2/Elafin (Peprotech, Rocky Hill, N.J.) were incubated with HIV-1 IIIB and BaL at multiplicity of infection (MOI) 1 for 1 hour at 37° C. in a final volume of 100 μl. Following incubation, the media was aspirated from TZM cells and the virus plus Trappin-2/Elafin was added to the cells along with 100 μl of TZM media. Luciferase activity was measured after 48 hours at 37° C. with 5% CO2 in a humidified incubator. Briefly, the supernatants were aspirated, and the cells were lysed with a BETA GLO luciferase assay substrate. Light intensity of each well was measured using a luminometer. Uninfected cells were used to determine background luminescence. All infectivity assays were performed in quadruplicate.
(§10) Other experiments were conducted in order to determine whether the inhibitory effects of Trappin-2/Elafin were at the cell surface level such as the blocking of a co-receptor. For these experiments, varying doses of Trappin-2/Elafin were directly added to TZM cells and incubated for 1 hour at 37° C. prior to washing with 1×PBS and addition of IIIB or BaL viruses. In additional experiments to determine possible post-infection mechanisms of inhibition by Trappin-2/Elafin, TZM cells were infected with HIV-1 IIIB and BaL at MOI 1 and were washed at 6 hours and 24 hours post-infection followed by the addition of 10 ng/ml rTrappin-2/Elafin. Assays were developed at 48 hours by addition of the BETA-GLO substrate and measuring relative light units using a luminometer.
(§11) Since HIV-1 is an important sexually transmitted pathogen, the activity of recombinant Trappin-2/Elaf in (rTrappin-2/Elafin) was evaluated against HIV-1 X4/T-tropic IIIB and R5/M-tropic BaL. HIV-1 IIIB and BaL were incubated with rTrappin-2/Elafin at 0.01, 0.1, 1, and 10 ng/ml for 1 hour at 37° C. TZM-bl indicator cells were plated the previous day at 25,000 cells per well and grown to 70-80% confluence. The virus-Trappin-2/Elafin mixture was added to the TZM cells and incubated for 48 hours at 37° C. At the end of the incubation period, BETA-GLO substrate was added to the cells and viral infection was quantified using a luminometer, expressed as relative light units (RLU). The data was expressed as percent of control with virus-only control set at 100%. […] Therefore, the concentrations of Trappin-2/Elafin showing anti-HIV-1 activity were in the range of physiological levels of this molecule that were secreted by the FRT epithelial cells. Since the inhibitory activity was observed as a result of pre-incubation of HIV-1 and rTrappin-2/Elafin, it is contemplated that the effect of Trappin-2/Elafin on viral infection was direct. […]
(§12) Laboratory-adapted viral strains HIV-1 IIIB (×4) and BaL (R5) were obtained and virus stocks were propagated in PHA-stimulated human PBMC and stored frozen at −80° C. Virus stocks produced in PBMC of molecularly cloned HIV-1 NL4.3 (×4; lab-adapted) and YU-2.c (R5; directly cloned without culture) were obtained. Virus titers were determined on TZM-bl cells as described herein. Also used was a PBMC-derived virus stock of pCH077.c, a recently generated Clade B infectious molecular clone matching the nucleotide sequence determined to be the transmitted/founder virus sequence of CHAVI subject 700010077. […]

[6] = tested on: TZM cells; format: cell-based, human
Description: Viability of TZM cells upon treatment with Trappin-2/Elafin and CVL was quantified using the […] 96° AQueous One Solution Cell Proliferation Assay (Promega) according to manufacturer's instructions. Briefly, reagent was added directly to cell cultures and incubated for 1 hour at 37° C. followed by reading the plate in a plate reader at OD 490 nm.

[7] = tested on: HIV-1 X4/T-tropic IIIB; experiment: TZM-bl infectivity assay, HIV-1 IIIB; format: cell-based; settings: for post-infection inhibition, IIIB: 1 ng/ml
Description: as §8, §9, §10, §11, §12

[8] = cells pre-incubated with 0.1 and 1 ng/ml 1 hour, washed
[9] = virus pre-incubated 1 hour with 0.01, 0.1, 1, 10 ng/ml, 48 hours

Row | Substance | CCL20/MIP3α mRNA upregulation ([1]; Poly(I:C) 25 μg/mL, 24 hours, five out of five patients) | endometrium CCL20/MIP3α secretion ([1]; Poly(I:C) 24 hours, ELISA) | CCL20/MIP3α level secreted by endometrium cells ([1]; stimulated with Poly(I:C), constitutive 0.2-7 ng/mL) [ng/mL] | samples with CCL20/MIP3α mRNA upregulation ([2]; Poly(I:C) 24 hours) | Fallopian tube CCL20/MIP3α secretion ([2]; Poly(I:C) 24 hours, ELISA) | CCL20/MIP3α level secreted by Fallopian tube cells ([2]; stimulated with Poly(I:C), constitutive 5-12 ng/mL) [ng/mL] | Trappin-2/Elafin secretion by UT epithelial cells [3] | fraction of patients upregulating Trappin-2/Elafin [4] | post-infection inhibition, BaL ([5]; added 6 and 24 hours post-infection, 1 ng/ml) | infectivity of TZM cells by BaL after pre-exposure of the cells [5, 8] | inhibition of BaL [5, 9] [%] | toxic effect on the TZM cells (viability) [6] | post-infection inhibition, IIIB ([7]; added 6 hours post-infection) | post-infection inhibition, IIIB ([7]; added 24 hours post-infection) | infectivity of TZM cells by IIIB after pre-exposure of the cells [7, 8] | inhibition of IIIB [7, 9] [%]
1 | Poly(I:C) | greater than two-fold | significant increase | 5 to 12 | two out of four samples | significant increase | 13 to 20 | significantly increased | approximately ⅓ typically responded |  |  |  |  |  |  |  | 
2 | rTrappin-2/Elafin: recombinant human Trappin-2/Elafin (Peprotech), serine protease inhibitor (AQEPVKGPVSTKPGSCPIILIRCAMLNPPNRCLKDTDCPGIKKCCEGSCGMACFVPQ; UniProt P19957 61-117, looked up) |  |  |  |  |  |  |  |  | no significant post-infection inhibition | no effect | ~60 | not due to toxic effect | no significant post-infection inhibition | slight inhibition | no effect | ~80
